Measurements reported in PubChem BioAssay (NCI).
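Dose response: 5 concentrations. Exposure: 48 h. Format: 96-well plates. Endpoint: linear interpolation; highest concentration if not reached. GI50 marks 50% less growth. The concentration for full growth arrest is given as TGI.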

How the values were obtained:
Assay in all cases: inhibition of tumour cell growth, NCI panel, 48 h
786-0 renal = system: 786-0 renal
A498 renal = system: A498 renal
A549 NSCLC = system: A549 NSCLC
ACHN renal = system: ACHN renal
BT-549 breast = system: BT-549 breast
CAKI-1 renal = system: CAKI-1 renal
CCRF-CEM leukemia = system: CCRF-CEM leukemia
COLO 205 colon = system: COLO 205 colon
DU-145 prostate = system: DU-145 prostate
EKVX NSCLC = system: EKVX NSCLC
HCC-2998 colon = system: HCC-2998 colon
HCT-116 colon = system: HCT-116 colon
HCT-15 colon = system: HCT-15 colon
HL-60(TB) leukemia = system: HL-60(TB) leukemia
HOP-62 NSCLC = system: HOP-62 NSCLC
HOP-92 NSCLC = system: HOP-92 NSCLC
HS 578T breast = system: HS 578T breast
HT29 colon = system: HT29 colon
IGROV1 ovarian = system: IGROV1 ovarian
K-562 leukemia = system: K-562 leukemia
KM12 colon = system: KM12 colon
LOX IMVI melanoma = system: LOX IMVI melanoma
M14 melanoma = system: M14 melanoma
MALME-3M melanoma = system: MALME-3M melanoma
MCF7 breast = system: MCF7 breast
MDA-MB-231 breast = system: MDA-MB-231 breast
MDA-MB-435 = system: MDA-MB-435
MDA-MB-468 breast = system: MDA-MB-468 breast
MOLT-4 leukemia = system: MOLT-4 leukemia
NCI-H226 lung = system: NCI-H226 lung

Q: Which GI50 (786-0 renal) does the source give for `COc1ccc(CN2[C@H](C(=O)NCCCCCCC(=O)NO)Cc3c([nH]c4ccccc34)[C@H]2C2CC2)cc1` here?
A: The GI50 was 3390 nM.

Q: What about the TGI (786-0 renal) of the same molecule?
A: The TGI was over 20000 nM.

Q: What about the GI50 (A498 renal) of the same molecule?
A: Its GI50 is 1130 nM.

Q: And the TGI (A498 renal)?
A: The TGI was 4200 nM.

Q: What about the GI50 (A549 NSCLC) of the same molecule?
A: Its GI50 is 2150 nM.

Q: And the TGI (A549 NSCLC)?
A: Its TGI is over 13000 nM.

Q: What about the GI50 (ACHN renal) of the same molecule?
A: Its GI50 is 1720 nM.

Q: What about the TGI (ACHN renal) of the same molecule?
A: The TGI was 6110 nM.

Q: What about the GI50 (BT-549 breast) of the same molecule?
A: The GI50 was 5340 nM.

Q: What about the TGI (BT-549 breast) of the same molecule?
A: The TGI was over 19100 nM.

Q: And the GI50 (CAKI-1 renal)?
A: The GI50 was 1480 nM.

Q: And the TGI (CAKI-1 renal)?
A: Its TGI is 7560 nM.

Q: What about the GI50 (CCRF-CEM leukemia) of the same molecule?
A: The GI50 was 1250 nM.

Q: And the TGI (CCRF-CEM leukemia)?
A: Its TGI is over 20000 nM.

Q: What about the GI50 (COLO 205 colon) of the same molecule?
A: Its GI50 is 1630 nM.

Q: What about the TGI (COLO 205 colon) of the same molecule?
A: The TGI was 4870 nM.

Q: What about the GI50 (DU-145 prostate) of the same molecule?
A: The GI50 was 2120 nM.

Q: What about the TGI (DU-145 prostate) of the same molecule?
A: The TGI was over 20000 nM.

Q: And the GI50 (EKVX NSCLC)?
A: The GI50 was 2250 nM.

Q: What about the TGI (EKVX NSCLC) of the same molecule?
A: Its TGI is over 20000 nM.

Q: What about the GI50 (HCC-2998 colon) of the same molecule?
A: The GI50 was 1610 nM.

Q: What about the TGI (HCC-2998 colon) of the same molecule?
A: Its TGI is 4550 nM.

Q: What about the GI50 (HCT-116 colon) of the same molecule?
A: The GI50 was 1160 nM.

Q: What about the TGI (HCT-116 colon) of the same molecule?
A: The TGI was over 13300 nM.

Q: What about the GI50 (HCT-15 colon) of the same molecule?
A: The GI50 was 4340 nM.

Q: And the TGI (HCT-15 colon)?
A: The TGI was over 16500 nM.

Q: What about the GI50 (HL-60(TB) leukemia) of the same molecule?
A: Its GI50 is 2120 nM.

Q: What about the TGI (HL-60(TB) leukemia) of the same molecule?
A: The TGI was over 20000 nM.

Q: What about the GI50 (HOP-62 NSCLC) of the same molecule?
A: Its GI50 is 2160 nM.

Q: What about the TGI (HOP-62 NSCLC) of the same molecule?
A: The TGI was over 10600 nM.

Q: What about the GI50 (HOP-92 NSCLC) of the same molecule?
A: The GI50 was 1290 nM.

Q: What about the TGI (HOP-92 NSCLC) of the same molecule?
A: The TGI was 4380 nM.

Q: And the GI50 (HS 578T breast)?
A: The GI50 was 1650 nM.

Q: And the TGI (HS 578T breast)?
A: The TGI was 10700 nM.

Q: And the GI50 (HT29 colon)?
A: Its GI50 is 1350 nM.

Q: What about the TGI (HT29 colon) of the same molecule?
A: The TGI was 10600 nM.

Q: What about the GI50 (IGROV1 ovarian) of the same molecule?
A: The GI50 was 1410 nM.

Q: What about the TGI (IGROV1 ovarian) of the same molecule?
A: The TGI was 4690 nM.

Q: What about the GI50 (K-562 leukemia) of the same molecule?
A: Its GI50 is 1860 nM.

Q: What about the TGI (K-562 leukemia) of the same molecule?
A: Its TGI is over 20000 nM.

Q: And the GI50 (KM12 colon)?
A: Its GI50 is 2140 nM.

Q: What about the TGI (KM12 colon) of the same molecule?
A: Its TGI is over 14200 nM.

Q: And the GI50 (LOX IMVI melanoma)?
A: Its GI50 is 1310 nM.

Q: And the TGI (LOX IMVI melanoma)?
A: Its TGI is 3590 nM.

Q: And the GI50 (M14 melanoma)?
A: Its GI50 is 2020 nM.

Q: And the TGI (M14 melanoma)?
A: Its TGI is over 20000 nM.

Q: What about the GI50 (MALME-3M melanoma) of the same molecule?
A: Its GI50 is 946 nM.

Q: And the TGI (MALME-3M melanoma)?
A: The TGI was 3840 nM.

Q: What about the GI50 (MCF7 breast) of the same molecule?
A: The GI50 was 1800 nM.

Q: And the TGI (MCF7 breast)?
A: The TGI was over 16100 nM.

Q: And the GI50 (MDA-MB-231 breast)?
A: Its GI50 is 1410 nM.

Q: And the TGI (MDA-MB-231 breast)?
A: Its TGI is 4200 nM.

Q: What about the GI50 (MDA-MB-435) of the same molecule?
A: Its GI50 is 1160 nM.

Q: What about the TGI (MDA-MB-435) of the same molecule?
A: Its TGI is 3490 nM.

Q: And the GI50 (MDA-MB-468 breast)?
A: Its GI50 is 1020 nM.

Q: What about the TGI (MDA-MB-468 breast) of the same molecule?
A: The TGI was over 5340 nM.

Q: And the GI50 (MOLT-4 leukemia)?
A: Its GI50 is 1960 nM.

Q: And the TGI (MOLT-4 leukemia)?
A: The TGI was over 20000 nM.

Q: And the GI50 (NCI-H226 lung)?
A: Its GI50 is 2900 nM.
